In patent US12696901B2, “Pesticidally active heterocyclic derivatives with sulfur containing substituents” (SYNGENTA CROP PROTECTION AG, priority 2020, dated 2026):

Legend:
Format in all cases: in vivo
[1] = tested on: Diabrotica balteata (Corn Root Worm); assay: Activity against Diabrotica balteata (corn root worm), sprayed maize sprouts on agar; settings: 96 h, application rate 200 ppm, L2 larvae, 4 days after infestation, read-out: effect in at least one of the two categories (mortality or growth inhibition)
Method: Example B2: Activity Against Diabrotica balteata (Corn Root Worm)
Maize sprouts placed onto an agar layer in 24-well microtiter plates were treated with aqueous test solutions prepared from 10,000 ppm DMSO stock solutions by spraying. After drying, the plates were infested with L2 larvae (6 to 10 per well). The samples were assessed for mortality and growth inhibition in comparison to untreated samples 4 days after infestation.

[2] = tested on: Plutella xylostella (Diamond Back Moth); assay: Activity against Plutella xylostella (diamond back moth), treated artificial diet; settings: 192 h, application rate 200 ppm, eggs, 8 days after infestation, read-out: effect in at least one of the two categories (mortality or growth inhibition)
Method: Example B5: Activity Against Plutella xylostella (Diamond Back Moth)
24-well microtiter plates with artificial diet were treated with aqueous test solutions prepared from 10,000 ppm DMSO stock solutions by pipetting. After drying, Plutella eggs were pipetted through a plastic stencil onto a gel blotting paper and the plate was closed with it. The samples were assessed for mortality and growth inhibition in comparison to untreated samples 8 days after infestation.

[3] = tested on: Myzus persicae (Green Peach Aphid); assay: Activity against Myzus persicae (green peach aphid), feeding/contact activity; settings: 144 h, application rate 200 ppm, mixed ages, 6 days after infestation
Method: Example B6: Activity Against Myzus persicae (Green Peach Aphid) Feeding/Contact Activity
Sunflower leaf discs were placed onto agar in a 24-well microtiter plate and sprayed with aqueous test solutions prepared from 10,000 ppm DMSO stock solutions. After drying, the leaf discs were infested with an aphid population of mixed ages. The samples were assessed for mortality 6 days after infestation.

[4] = tested on: Spodoptera littoralis (Egyptian Cotton Leaf Worm); assay: Activity against Spodoptera littoralis (Egyptian cotton leaf worm), sprayed cotton leaf discs; settings: foliar, 72 h, application rate 200 ppm, L1 larvae, 3 days after infestation
Method: Example B7: Activity Against Spodoptera littoralis (Egyptian Cotton Leaf Worm)
Cotton leaf discs were placed onto agar in 24-well microtiter plates and sprayed with aqueous test solutions prepared from 10,000 ppm DMSO stock solutions. After drying the leaf discs were infested with five L1 larvae. The samples were assessed for mortality, anti-feeding effect, and growth inhibition in comparison to untreated samples 3 days after infestation. Control of Spodoptera littoralis by a test sample is given when at least one of the categories mortality, anti-feedant effect, and growth inhibition is higher than the untreated sample.

[5] = tested on: Carpocapsa (Cydia) Pomonella (Codling Moth); assay: Activity against Carpocapsa (Cydia) pomonella (codling moth), sprayed diet cubes; settings: 336 h, application rate 12.5 ppm, L1 larvae, 14 days after infestation, read-out: effect in at least one of the two categories (mortality or growth inhibition)
Method: Example B11: Activity Against Carpocapsa (Cydia) Pomonella (Codling Moth)
Diet cubes coated with paraffin were sprayed with diluted test solutions in an application chamber. After drying off the treated cubes (10 replicates) were infested with 1 L1 larvae. Samples were incubated at 26-27° C. and checked 14 days after infestation for mortality and growth inhibition. The following compounds gave an effect of at least 80% in at least one of the two categories (mortality or growth inhibition) at an application rate of 12.5 ppm: P1, P2, P3, P4, P5, P6, P10, P11, P12, P14, P15, P16, P17, P19, P20, P21, P22, P24, P27, P29, P30, P33, P34, P35.

[6] = tested on: Diabrotica balteata (Corn Root Worm); assay: Activity against Diabrotica balteata (corn root worm), corn seedlings on filter paper in cups; settings: 120 h, application rate 3 ppm, L2 larva, 5 days after treatment, read-out: effect in at least one of the two categories (mortality or growth inhibition)
Method: Example B12: Activity Against Diabrotica Balteata (Corn Root Worm)
Three corn seedlings were placed on wetted filter paper in plastic cups, and 3 ml of diluted test solutions were pipetted onto them. The cups were infested with 10 L2 larva and checked for mortality and growth regulation 5 days after treatment.

[7] = tested on: Euschistus heros (Neotropical Brown Stink Bug); assay: Activity against Euschistus heros (neotropical brown stink bug), sprayed soybean leaves; settings: 120 h, application rate 200 ppm, N2 nymphs, 5 days after infestation, read-out: effect in at least one of the two categories (mortality or growth inhibition)
Method: Example B3: Activity Against Euschistus heros (Neotropical Brown Stink Bug)
Soybean leaves on agar in 24-well microtiter plates were sprayed with aqueous test solutions prepared from 10,000 ppm DMSO stock solutions. After drying the leaves were infested with N2 nymphs. The samples were assessed for mortality and growth inhibition in comparison to untreated samples 5 days after infestation.

[8] = tested on: Chilo suppressalis (Striped Rice Stemborer); assay: Activity against Chilo suppressalis (striped rice stemborer), treated artificial diet; settings: 144 h, application rate 200 ppm, L2 larvae, 6 days after infestation
Method: Example B10: Activity Against Chilo suppressalis (Striped Rice Stemborer)
24-well microtiter plates with artificial diet were treated with aqueous test solutions prepared from 10,000 ppm DMSO stock solutions by pipetting. After drying, the plates were infested with L2 larvae (6-8 per well). The samples were assessed for mortality, anti-feeding effect, and growth inhibition in comparison to untreated samples 6 days after infestation. Control of Chilo suppressalis by a test sample is given when at least one of the categories mortality, anti-feedant effect, and growth inhibition is higher than the untreated sample.

CCS(=O)(=O)c1c(N2Cc3ncc(C(F)(F)F)cc3C2=O)nc2cc(C(F)(F)F)ccn12 [Compound P2, 6-[3-ethylsulfonyl-7-(trifluoromethyl)imidazo[1,2-a]pyridin-2-yl]-3-(trifluoromethyl)-7H-pyrrolo[3,4-b]pyridin-5-one]
≥ 80%: percent effect (mortality or growth inhibition) at 200 ppm [1] | percent effect (mortality or growth inhibition) at 200 ppm [2] | mortality at 200 ppm [3] | percent control (mortality, anti-feedant effect or growth inhibition) at 200 ppm [4] | percent effect (mortality or growth inhibition) at 12.5 ppm [5] | percent effect (mortality or growth inhibition) at 3 ppm [6]

CCS(=O)(=O)c1c(N2Cc3ncc(C(F)(F)F)cc3C2=O)nc2ccc(OC)cn12 [Compound P8, 6-(3-ethylsulfonyl-6-methoxy-imidazo [1,2-a]pyridin-2-yl)-3-(trifluoromethyl)-7H-pyrrolo[3,4-b] pyridin-5-one]
≥ 80%: percent effect (mortality or growth inhibition) at 200 ppm [1] | percent effect (mortality or growth inhibition) at 200 ppm [7] | percent effect (mortality or growth inhibition) at 200 ppm [2] | percent control (mortality, anti-feedant effect or growth inhibition) at 200 ppm [4]

CCS(=O)(=O)c1c(N2Cc3ncc(C(F)(F)F)cc3C2=O)nc2ccc(OC(C)C)cn12 [Compound P9, 6-(3-ethylsulfonyl-6-isopropoxy-imidazo [1,2-a]pyridin-2-yl)-3-(trifluoromethyl)-7H-pyrrolo[3,4-b] pyridin-5-one]
≥ 80%: percent control (mortality, anti-feedant effect or growth inhibition) at 200 ppm [4]

CCS(=O)(=O)c1c(N2Cc3ncc(C(F)(F)F)cc3C2=O)nc2ccc(OCC(F)(F)F)cn12 [Compound P11, 6-[3-ethylsulfonyl-6-(2,2,2-trifluoroethoxy)imidazo[1,2-a]pyridin-2-yl]-3-(trifluoromethyl)-7H-pyrrolo[3,4-b]pyridin-5-one]
≥ 80%: percent effect (mortality or growth inhibition) at 200 ppm [1] | percent effect (mortality or growth inhibition) at 200 ppm [2] | mortality at 200 ppm [3] | percent control (mortality, anti-feedant effect or growth inhibition) at 200 ppm [4] | percent control (mortality, anti-feedant effect or growth inhibition) at 200 ppm [8] | percent effect (mortality or growth inhibition) at 12.5 ppm [5] | percent effect (mortality or growth inhibition) at 3 ppm [6]

CCS(=O)(=O)c1c(N2Cc3ncc(C(F)(F)F)cc3C2=O)nc2ccc(C(C)(F)F)cn12 [Compound P18, 6-[6-(1,1-difluoroethyl)-3-ethylsulfonyl-imidazo [1,2-a]pyridin-2-yl]-3-(trifluoromethyl)-7H-pyrrolo[3,4-b]pyridin-5-one]
≥ 80%: percent effect (mortality or growth inhibition) at 3 ppm [6]

CCS(=O)(=O)c1c(N2Cc3ncc(C(F)(F)F)cc3C2=O)nc2cc(Br)ccn12 [Compound P22, 6-(7-bromo-3-ethylsulfonyl-imidazo[1,2-a]pyridin-2-yl)-3-(trifluoromethyl)-7H-pyrrolo[3,4-b]pyridin-5-one]
≥ 80%: percent effect (mortality or growth inhibition) at 200 ppm [1] | percent effect (mortality or growth inhibition) at 200 ppm [2] | mortality at 200 ppm [3] | percent control (mortality, anti-feedant effect or growth inhibition) at 200 ppm [4] | percent control (mortality, anti-feedant effect or growth inhibition) at 200 ppm [8] | percent effect (mortality or growth inhibition) at 12.5 ppm [5] | percent effect (mortality or growth inhibition) at 3 ppm [6]

CCS(=O)(=O)c1c(N2Cc3ccc(OC(F)(F)F)cc3C2=O)nc2cc(OCC(F)(F)F)ccn12 [Compound P28, 2-[3-ethylsulfonyl-7-(2,2,2-trifluoroethoxy)imidazo[1,2-a]pyridin-2-yl]-6-(trifluoromethoxy) isoindolin-1-one]
≥ 80%: percent effect (mortality or growth inhibition) at 3 ppm [6]

CCS(=O)(=O)c1c(N2Cc3ccc(OC(F)(F)F)cc3C2=O)nc2ccc(Br)cn12 [Compound P29, 2-(6-bromo-3-ethylsulfonyl-imidazo [1,2-a]pyridin-2-yl)-6-(trifluoromethoxy) isoindolin-1-one]
≥ 80%: percent effect (mortality or growth inhibition) at 200 ppm [1] | percent effect (mortality or growth inhibition) at 200 ppm [2] | mortality at 200 ppm [3] | percent control (mortality, anti-feedant effect or growth inhibition) at 200 ppm [4] | percent control (mortality, anti-feedant effect or growth inhibition) at 200 ppm [8] | percent effect (mortality or growth inhibition) at 12.5 ppm [5] | percent effect (mortality or growth inhibition) at 3 ppm [6]

CCS(=O)(=O)c1c(N2Cc3ccc(S(=O)(=O)C(F)(F)F)cc3C2=O)nc2ccc(Br)cn12 [Compound P30, 2-(6-bromo-3-ethylsulfonyl-imidazo[1,2-a]pyridin-2-yl)-6-(trifluoromethyl-sulfonyl) isoindolin-1-one]
≥ 80%: percent effect (mortality or growth inhibition) at 200 ppm [1] | percent effect (mortality or growth inhibition) at 200 ppm [2] | percent control (mortality, anti-feedant effect or growth inhibition) at 200 ppm [4] | percent control (mortality, anti-feedant effect or growth inhibition) at 200 ppm [8] | percent effect (mortality or growth inhibition) at 12.5 ppm [5] | percent effect (mortality or growth inhibition) at 3 ppm [6]

CCS(=O)(=O)c1c(N2Cc3ncc(C(F)(F)F)cc3C2=O)nc2ccc(OCC3(C#N)CC3)cn12 [Compound P31, 1-[[3-ethylsulfonyl-2-[5-oxo-3-(trifluoromethyl)-7H-pyrrolo[3,4-b]pyridin-6-yl]imidazo [1,2-a]pyridin-6-yl]oxymethyl] cyclopropane-carbonitrile]
≥ 80%: percent effect (mortality or growth inhibition) at 200 ppm [1] | percent effect (mortality or growth inhibition) at 200 ppm [2] | percent control (mortality, anti-feedant effect or growth inhibition) at 200 ppm [4] | percent control (mortality, anti-feedant effect or growth inhibition) at 200 ppm [8]

CCS(=O)(=O)c1c(N2Cc3ccc(S(=O)(=O)C(F)(F)F)cc3C2=O)nc2ccc(C(F)(F)F)cn12 [Compound P32, 2-[3-ethylsulfonyl-6-(trifluoromethyl)imidazo[1,2-a]pyridin-2-yl]-6-(trifluoromethyl-sulfonyl) isoindolin-1-one]
≥ 80%: percent effect (mortality or growth inhibition) at 200 ppm [1] | percent effect (mortality or growth inhibition) at 200 ppm [2] | percent control (mortality, anti-feedant effect or growth inhibition) at 200 ppm [4] | percent control (mortality, anti-feedant effect or growth inhibition) at 200 ppm [8] | percent effect (mortality or growth inhibition) at 3 ppm [6]

CCS(=O)(=O)c1c(N2Cc3ccc(OC(F)F)cc3C2=O)nc2ccc(C(F)(F)F)cn12 [Compound P34, 6-(difluoromethoxy)-2-[3-ethylsulfonyl-6-(trifluoromethyl)imidazo[1,2-a]pyridin-2-yl]isoindolin-1-one]
≥ 80%: percent effect (mortality or growth inhibition) at 200 ppm [1] | percent effect (mortality or growth inhibition) at 200 ppm [2] | mortality at 200 ppm [3] | percent control (mortality, anti-feedant effect or growth inhibition) at 200 ppm [4] | percent control (mortality, anti-feedant effect or growth inhibition) at 200 ppm [8] | percent effect (mortality or growth inhibition) at 12.5 ppm [5] | percent effect (mortality or growth inhibition) at 3 ppm [6]
